PubChem BioAssay AID179 (DTP/NCI, 2004)
The source made the active and inactive calls.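 How the source made its calls: active means compounds giving half or more protection of infected cells from virus-caused growth loss, again on retest; inactive means the rest.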

Test system: CEM cells HIV-1 protection, formazan growth assay
Test: NCI AIDS Antiviral Assay
Details: for IC50: measured here: growth of uninfected CEM cells
Procedure, shortened: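 Steps: treat uninfected and HIV-1-infected human CEM cells at five drug levels; quantify growth by soluble formazan; retest any compound reaching 50% protection; classify actives from the retest.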

SMILES | EC50 | IC50 | outcome
O=C(OCCN1CCCC1)c1cc2ccccc2n1Cc1ccccc1 | > 200 µM | 36.3 µM | –
Cc1cc(C)c(S(=O)(=O)Sc2nnnn2C)c(C)c1 | > 603 µM | 126 µM | –
COc1ccc(-c2nnc(-c3ccncc3)o2)cc1 | > 200 µM | > 200 µM | –
O=C(NNc1nc2ccccc2n2cccc12)c1cnccn1 | > 2 µM | 0.417 µM | –
COc1cc(C(=O)/C=C/c2ccc(OCC#N)cc2)cc(OC)c1OC | > 200 µM | 29.5 µM | –
O=C1C(=O)N(c2ccc(Cl)c(Cl)c2)C(=O)C(=O)C1c1nc2ccccc2s1 | – | – | inactive
CSC(=S)NNC(=O)c1ccncc1 | > 12 µM | > 12 µM | –
CN(c1c(Cl)cccc1Cl)S(=O)(=O)c1ccccc1[N+](=O)[O-] | > 200 µM | 66.1 µM | –
O=C(Nc1nc2ccccc2n1Cc1ccccc1)C(=O)NC12CC3CC(CC(C3)C1)C2 | > 43.7 µM | > 43.7 µM | –
COC(=O)CSc1n[nH]c(-c2ccc(O)c([N+](=O)[O-])c2)n1 | > 115 µM | > 115 µM | –
CCOC(=O)C(NC(=O)c1ccccc1)[CH](c1ccccc1)[Sn]([c]1ccccc1)([c]1ccccc1)[c]1ccccc1 (centres undefined) | > 200 µM | 20.4 µM | –
CCCC[PH+](CCCC)CCCC.[C-]#[O+].[C-]#[O+].[C-]#[O+].[C-]#[O+].[Fe] | > 200 µM | > 200 µM | –
COc1cc([N+](=O)[O-])c(S(=O)(=O)O)cc1-n1nc(C(=O)Nc2ccccc2)n[n+]1-c1cc(S(=O)(=O)[O-])c([N+](=O)[O-])cc1OC | > 372 µM | 288 µM | –
CCn1c2ccccc2c2cc(NC(=O)c3c(NCCNCCO)nc(=O)[nH]c3C)ccc21 | > 200 µM | > 200 µM | –
CCN(CC)CCOC(=O)Cc1cccc2c(=O)cc(-c3ccccc3)oc12 | – | – | inactive
CC(C)(C)c1cc(O)c2c(c1O)C(=O)CCC2 | – | – | inactive
COc1ccc(CCN2C(=O)c3cccc4c(Sc5ccccc5[N+](=O)[O-])ccc(c34)C2=O)cc1OC | > 200 µM | > 200 µM | –
CCn1c(SCc2nnc(Nc3ccccc3)s2)nc2ccccc2c1=O | > 200 µM | 69.2 µM | –
CCCOCN1COCN=C1NC#N | > 447 µM | 417 µM | –
COC(=O)C(C(=O)C(N)=O)c1csc(-n2nc(-c3ccccc3)cc2-c2ccccc2)n1 (centres undefined) | > 61.7 µM | 53.7 µM | –
COc1cccc(C2c3cc4c(cc3OC(Nc3ccccc3)C2C)OCO4)c1OC (centres undefined) | > 200 µM | 2.95 µM | –
O=c1[nH]c(=O)n(C2CC(F)C(CO)O2)cc1COCC(F)(F)F (centres undefined) | 0.17 µM | 204 µM | –
COc1ccc(C2CC(c3ccc4ccccc4c3O)=NN2C(C)=O)cc1OC (centres undefined) | > 50.1 µM | > 50.1 µM | –

SMILES | EC50 | IC50 | outcome
COC(=O)C12OC3CO[Si](C(C)C)(C(C)C)O[Si](C(C)C)(C(C)C)OC3C1Oc1nc(=O)ccn12 (centres undefined) | > 200 µM | 35.5 µM | –
COC(=O)CCC(=O)Nc1cccc(C(F)(F)F)c1 | > 129 µM | > 129 µM | –
O=[N+]([O-])c1ccc(Cl)c(C2SCc3nc4ccccc4n32)c1 (centres undefined) | > 39.8 µM | 33.1 µM | –
Nc1nc(N)nc(-c2cnccn2)n1 | > 200 µM | > 200 µM | –
Cc1nnc(N2C(=O)C(=Cc3ccc(Cl)cc3)N=C2c2ccc(Cl)cc2)nc1/C=C\c1ccc(N(C)C)cc1 | 47.9 µM | 110 µM | –
O=C(O)C12C3C4C1C1C2C3C41C(=O)O (centres undefined) | > 200 µM | > 200 µM | –
COc1ccc(/C=C2\CCC(C)c3c2nc(N)c(C#N)c3-c2ccc(OC)c(OC)c2)cc1OC (centres undefined) | – | – | inactive
O=c1[nH]oc(NS(=O)(=O)c2ccccc2)c1C1CCCCC1 | > 200 µM | 97.7 µM | –
CN(C)CC1=C(O)c2ccccc2C(=O)C1=O | > 1070 µM | > 1070 µM | –
CCN=C1C=C/C(=C(/c2ccc(NCC)c(C)c2)c2cc(O)c(S(=O)(=O)O)cc2S(=O)(=O)O)C=C1C | – | – | inactive
CCCCCc1cc(O)c2c3c(c(=O)oc2c1)CP(=O)(c1ccccc1)CC3 (centres undefined) | > 25.1 µM | 19.1 µM | –
CCCCN1C(=N)C2(C#N)C(CCC)C(CC)C1C2(C#N)C#N (centres undefined) | > 200 µM | 158 µM | –
CC(C)(C)C(O)CC(O)(C(F)(F)F)C(F)(F)F (centres undefined) | > 200 µM | > 200 µM | –
CCN(CC)C(=S)SCn1nc(Cl)c2ccc([N+](=O)[O-])cc21 | > 69.2 µM | 40.7 µM | –
Cc1cc(Br)c(N2C3=C(CC4=C2CCCC4=O)C(=O)CCC3)c(Br)c1 | > 100 µM | 21.9 µM | –
[Ni+2].[O-]/C(=N\N=C/c1ccccc1F)c1ccncc1.[O-]/C(=N\N=C\c1ccccc1F)c1ccncc1 | > 100 µM | > 100 µM | –
Cc1cn(CC2=NCC(C)N2)c(=O)[nH]c1=O (centres undefined) | > 200 µM | > 200 µM | –
CC1=C(C(=O)Nc2ccc(Cl)c(Cl)c2)C(c2ccco2)C(C(=O)Nc2ccc(Cl)c(Cl)c2)=C(C)N1 | > 33.9 µM | 13.8 µM | –
COc1ccc(/C=C2/SC(=S)NC2=O)c(OC)c1OC | > 200 µM | 7.76 µM | –
O=C(O)[C@H](NS(=O)(=O)c1ccc(F)cc1)c1ccccc1 | – | – | inactive
CCOC(=O)c1c2cccccc-2nc1Nc1cccc2c(C)ccnc12 | – | – | inactive
O=C(CCBr)N1CCN(C(=O)CCBr)CC1 | > 708 µM | 9.33 µM | –
O=S1(=O)NNC(=NCc2ccc(F)cc2)c2ccccc21 | – | – | inactive

SMILES | EC50 | IC50 | outcome
C=CCn1c(N)c(N=O)c(=O)n(C)c1=O | > 200 µM | > 200 µM | –
CCOC(=O)c1ccc(N=C2C(=S)N(c3ccc(C(=O)OCC)cc3)C(=N)N2/N=C/c2ccccc2)cc1 | > 200 µM | 3.24 µM | –
N#CC(Cc1ccccc1)C(=O)NN (centres undefined) | > 200 µM | > 200 µM | –
Clc1ccc(-n2cccc2)cc1 | > 200 µM | > 200 µM | –
O=C(O)CNCc1c2ccccc2nc2ccccc12 | – | – | inactive
Cc1cc(O)c2c3c1C(=O)Oc1c(CO)c(O)c(C(=O)O)c(c1O3)C=NN=Cc1c3c(c(CO)c(O)c1C(=O)O)OC(=O)c1c(C)cc(O)c(c1O3)C=NN=C2 | – | – | inactive
CNC(=O)Nc1ccc(Cl)cn1 | > 200 µM | > 200 µM | –
CCOC(=O)C(=O)Cc1cnc2ccccc2n1 | > 53.7 µM | > 53.7 µM | –
O=C(c1ccccc1)C(Nc1nc2nc(-c3ccccc3)c(-c3ccccc3)n2[nH]1)c1ccccc1 (centres undefined) | > 200 µM | 27.5 µM | –
CN1C(=S)Nc2ncn(C)c2S1(=O)=O | > 81.3 µM | > 81.3 µM | –
CC(=O)OC(C)(C)C1CC[C@]2(C)/C=C/C(C)C[C@@H](O)/C=C(\C)CC(O)C12 (some centres undefined) | – | – | inactive
CC1(C)C=Cc2c(cc3oc4ccc5c(c4c(=O)c3c2O)C=CC(C)(C)O5)O1 | 36.3 µM | 50.1 µM | –
COC1CCCCC1C(N)C(=O)O (centres undefined) (tested in a mixture with another compound) | > 200 µM | > 200 µM | –
Brc1cc2c(cc1Br)CN(c1ccccc1)C2 | – | – | inactive
S=C1NC(/C=C/c2ccccc2)N2C(=S)NC(/C=C\c3ccccc3)N12 (centres undefined) | – | – | inactive
O=C(Cc1ccccc1)NNc1nc(NNC(=O)c2ccncc2)nc(Nc2ccccc2)n1 | > 200 µM | > 200 µM | –
COc1ccc(C2CC(c3ccc4ccccc4c3O)=NN2)cc1OC (centres undefined) | > 200 µM | 42.7 µM | –
NCCN.NCCN.O=C[O-].O=C[O-].[Co+3].[O-][Cl+3]([O-])([O-])[O-] | – | – | inactive
O=C(Nc1cc(Cl)ccc1Cl)C(=O)C(c1cnc2ccccc2n1)[N+](=O)[O-] (centres undefined) | > 89.1 µM | 38.9 µM | –
COc1cc2c(nn1)CCCC2 | – | – | inactive
N#CC(C#N)=C(N)/C(C#N)=C/c1cc(O)c(O)c(Br)c1 | > 77.6 µM | > 77.6 µM | –
N#CC1C(=O)C(=O)N(c2ccccc2)C1=O (centres undefined) | > 33.9 µM | > 33.9 µM | –
CCCCCCCCCCCCSC(=S)c1c(C)[nH]n(-c2ccccc2)c1=O | > 42.7 µM | 15.8 µM | –

SMILES | EC50 | IC50 | outcome
Clc1cccc(-c2nc3cccc4c3n2Cc2ncccc2-4)c1 | > 200 µM | > 200 µM | –
COc1cc2c3c(c1)nnn3C(=O)C(C)S2 (centres undefined) | – | – | inactive
Cc1nc2cccc(F)c2c(=O)n1-c1nnc(C2CC2)s1 | > 200 µM | > 200 µM | –
CC(=O)Nc1ccccc1/C=C/c1ccccn1 | > 1050 µM | 407 µM | –
CC1=CC(C)=Nc2ccc(C)cc2N1 | > 200 µM | 195 µM | –
CC1(C)C(=NNC(=S)NN)C(C)(C)C1=NNC(=S)NN | > 794 µM | 151 µM | –
CN1CN(c2ccccc2)C2(CCNCC2)C1=O | > 200 µM | > 200 µM | –
C[N+](C)(C)c1ccc2c(c1)N(S(C)(=O)=O)CC2CCl (centres undefined) | – | – | inactive
O=S(=O)(F)c1ccccc1C[P+](c1ccccc1)(c1ccccc1)c1ccccc1 | > 200 µM | 17.8 µM | –
COc1ccc(C2S/C(=C\c3cccc(OC)c3)C(=O)N2NC(=O)Cc2ccccc2)cc1 (centres undefined) | > 107 µM | > 107 µM | –
C[C@]12CC[C@H]3[C@@H](CC=C4C[C@@H](O)CC[C@@]43C)[C@@H]1CC[C@@H]2c1cnc[nH]1 | > 200 µM | 117 µM | –
COC(=O)C(Cc1ccccc1)C(=O)NC(CNC(=O)OCc1ccccc1)C(=O)OCc1ccccc1 (centres undefined) | > 200 µM | 29.5 µM | –
O=c1ccc2nc3ccc(O)cc3oc-2c1 | > 200 µM | 14.1 µM | –
O=C1C(=O)N(c2ccc(Cl)c(Cl)c2)C(=O)C(=O)C1c1nc2ccccc2o1 | – | – | inactive
CCC1NC(=O)C1NC(=O)OC (centres undefined) | – | – | inactive
CCCCCCCCCC(=O)CC(=O)c1ccc(O)cc1O | > 117 µM | 69.2 µM | –
CC(=O)OCC1OC(SC2=N/C(=C\c3cc4c(=O)c5ccccc5sc4s3)C(=O)N2c2ccccc2)C(OC(C)=O)C(OC(C)=O)C1OC(C)=O (centres undefined) | > 200 µM | 115 µM | –
O=C(Nc1nc(-c2ccccc2)cs1)OCC(Cl)(Cl)Cl | > 200 µM | 4.47 µM | –
CC(C)=C1C2CCC1C1CSCC21 (centres undefined) | > 115 µM | > 115 µM | –
Cc1ccc(Cc2n[nH]c(=O)n2Nc2ccccc2)cc1 | > 200 µM | > 200 µM | –
